According to patent US10045978B2 (AB SCIENCE, priority 2010, dated 2018):

What was measured:
Assay type in all cases: in vivo, human
[1] = system: patients with indolent mastocytosis with handicap bearing the D816V c-Kit mutation; assay: Example 2 phase 2a study, efficacy; parameters: mean reduction of FIS score / mean reduction of pruritus score / mean reduction in frequency of flushes / reduction of daily number of stools / reduction of daily number of micturition / AFIRMM score reduction: concentration or dose not given beside the values; details: week 12
Source text: Eligible patients were aged >18 years, had previously documented indolent systemic, smoldering systemic or cutaneous mastocytosis as per the WHO classification with associated disability as the result of mast cell released mediators. Patients had to have a positive D816V c-Kit mutation status, i.e. documented presence of D816V mutation in at least one infiltrated organ including bone marrow or skin. For patients with prior documented presence of D816V mutation in at least one infiltrated organ (bone marrow or skin), no test was performed at the screening visit; however, for those patients without such documentation it was necessary to perform c-Kit molecular analysis prior to randomization. Skin biopsy and optionally (unless patients had no cutaneous lesion) a bone marrow aspirate or biopsy, were performed at baseline to confirm the presence of D816V mutation and to count mast cells in the infiltrated organs. All skin biopsies, bone marrow aspirate or biopsies, performed for this study were sent to the AB Science central laboratory for sequencing and mast cell counting. Patients were classified as having a handicap if after appropriate symptomatic treatments they fulfilled at least one of the following a priori criteria: number of flushes/week ≥7; pruritus score ≥6; number of stools ≥4/day (i.e. diarrhea); micturition frequency ≥8/day (i.e. pollakiuria); Hamilton rating for depression ≥10; Fatigue Impact Scale (FIS) score ≥40; or EORTC quality-of-life questionnaire (QLQ-C30) score ≥60. Patients were excluded if they experienced inadequate organ function defined via blood test levels, or an Eastern Cooperative Oncology Group performance status >2. Other exclusion criteria included: life expectancy <6 months, severe or uncontrolled medical disease, and patients who were pregnant or nursing.
In accordance to the AFIRMM study (Hermine O, et al., 2008, PLoS ONE. 3:e2266), evaluation of treatment response was based upon the change of clinical symptoms associated with a patient's handicaps at week 12 relative to baseline. Efficacy was assessed on the symptoms of mastocytosis. Primary efficacy endpoints were treatment effect on the pruritus score, the number of flushes per week, the Hamilton score, and the Fatigue Impact scale.

[2] = system: patients with indolent mastocytosis with handicap bearing the D816V c-Kit mutation; assay: Example 2 phase 2a study, safety
[3] = system: patients with indolent mastocytosis with handicap bearing the D816V c-Kit mutation; assay: Example 3 a posteriori analysis of new handicap and response criteria
Source text: Of relevance to the invention described, the concepts of a restricted mast cell mediator release associated handicap population and a more stringently defined response criterion have been explored via a posteriori data analysis of a common study population. […] (Note, any discrepancies between directly equivalent data presented in example 2 and example 3 are due to the former being taken from preliminary data analysis and the latter being extended/validated data from that study).
A posteriori data analysis was carried out on a new, restricted mast cell mediator release associated handicap population (wherein patients were classified as having a handicap if after appropriate symptomatic treatments they fulfilled at least one of the following criteria: number of flushes/week ≥7; pruritus score ≥6; number of stools ≥4/day (i.e. diarrhea); micturition frequency ≥8/day (i.e. pollakiuria); Hamilton rating for depression ≥14; Fatigue Impact Scale (FIS) score ≥75; or EORTC quality-of-life questionnaire (QLQ-C30) score ≥60). […]

[4] = patients with this handicap at baseline

Cc1ccc(NC(=O)c2ccc(CN3CCN(C)CC3)cc2)cc1Nc1nc(-c2cccnc2)cs1 [masitinib, 4-(4-methylpiperazin-1-ylmethyl)-N-[4-methyl-3-(4-pyridin-3ylthiazol-2-ylamino)phenyl]benzamide]
AFIRMM score reduction [1]: 32.0% | Hamilton score improvement ([1]; PP population): 27.0% | mean reduction in frequency of flushes ([1]; PP population): 45.5% | mean reduction of FIS score ([1]; PP population): 51.8% | mean reduction of pruritus score ([1]; PP population): 46.0% | overall response rate (improvement ≥50%) ([1]; PP population (14 of 20 patients)): 70% | patients remaining stable ([1]; PP population (four patients)): 20% | reduction of daily number of stools ([1]; patients with diarrhea at baseline): 41.3% | reduction of daily number of micturition ([1]; patients with pollakiuria at baseline): 30.3% | Hamilton score improvement [1, 4]: 44.3% | mean reduction in frequency of flushes [1, 4]: 55.3% | mean reduction of FIS score [1, 4]: 45.6% | patients with at least one adverse event suspected to be related to masitinib ([2]; 20 patients): 95% | patients who discontinued treatment because of a suspected adverse event ([2]; five patients): 24% | patients with suspected adverse event that led to dose reduction ([2]; in vivo): Two | patients with at least one serious adverse event suspected to be related to masitinib ([2]; two patients): 9% | overall response rate ([3]; new handicap thresholds and response criterion, n=11): 52% | overall response rate ([3]; original handicap thresholds and response criterion, n=14): 62%
